# According to US20150094474A1, “AGRICULTURAL CHEMICALS” (Redx Pharma Ltd., priority 2012, published 2015):
# Tests used:
# Chinese cabbage = assay: Herbicidal bioassay, Chinese cabbage (% necrosis); type: in vivo
# Experimental: (§1) A laboratory bioassay was conducted to screen ten compounds (Fluazifop (25); Ethyl fluazifop (62); five fluazifop analogues: 27, 28, 63, 64 and 65; mesofulfuron (6); and two mesosulfuron analogues: 8 and 61. for activity against Lolium perenne, barley, peas and Chinese cabbage. Compounds were diluted in DMSO. Controls were performed using both DMSO and water.
# (§2) Plants were obtained as seeds and were grown to the 2-4 true leaf stage. Plants were grown individually in seed trays. Each plant (in an approximately 3 cm diameter plug) was then detached from the tray for spraying. Environmental conditions were closely monitored and recorded and were within the optimal range of the target species.
# (§3) The compounds were screened at a range of six concentrations, eg. 0.05%, 0.01%, 0.005%, 0.001%, 0.0005% and 0.0001%. Treatments will be applied directly onto the plants, using a potter tower.
# (§4) One plant of each type will be sprayed using a potter tower. The 4 different types of weeds will be placed in a 10 cm diameter area underneath the potter sprayer and sprayed simultaneously. The growth of the plants and any Phytotoxicity effects will then be assessed at specified growth intervals, according to EPPO guideline PP1/135. Five replicates will be performed for each treatment, for each species.
# Lolium perenne = assay: Herbicidal bioassay, Lolium perenne / rye grass (% necrosis); type: in vivo
# Experimental: as §1, §2, §3, §4
smiles,measurement,setting,value
CCOC(=O)C(C)Oc1ccc(Oc2ccc(C(F)(F)F)cn2)cc1 (stereo not drawn) [Fluazifop Ethyl ester (62)],Sum of % necrosis in Chinese cabbage,"Chinese cabbage; Dose 0.00005, Day 0",C (less than 50% necrosis)
same,Sum of % necrosis in Chinese cabbage,"Chinese cabbage; Dose 0.00005, Day 1",C (less than 50% necrosis)
same,Sum of % necrosis in Chinese cabbage,"Chinese cabbage; Dose 0.00005, Day 3",C (less than 50% necrosis)
same,Sum of % necrosis in Chinese cabbage,"Chinese cabbage; Dose 0.00005, Day 7",B (50%-80% necrosis)
same,Sum of % necrosis in Chinese cabbage,"Chinese cabbage; Dose 0.00005, Day 10",A (over 80% necrosis)
same,Sum of % necrosis in Chinese cabbage,"Chinese cabbage; Dose 0.00005, Day 14",A (over 80% necrosis)
same,Sum of % necrosis in Chinese cabbage,"Chinese cabbage; Dose 0.00005, Day 21",A (over 80% necrosis)
same,Sum of % necrosis in Chinese cabbage,"Chinese cabbage; Dose 0.0001, Day 0",C (less than 50% necrosis)
same,Sum of % necrosis in Chinese cabbage,"Chinese cabbage; Dose 0.0001, Day 1",C (less than 50% necrosis)
same,Sum of % necrosis in Chinese cabbage,"Chinese cabbage; Dose 0.0001, Day 3",C (less than 50% necrosis)
same,Sum of % necrosis in Chinese cabbage,"Chinese cabbage; Dose 0.0001, Day 7",B (50%-80% necrosis)
same,Sum of % necrosis in Chinese cabbage,"Chinese cabbage; Dose 0.0001, Day 10",A (over 80% necrosis)
same,Sum of % necrosis in Chinese cabbage,"Chinese cabbage; Dose 0.0001, Day 14",A (over 80% necrosis)
same,Sum of % necrosis in Chinese cabbage,"Chinese cabbage; Dose 0.0001, Day 21",A (over 80% necrosis)
same,Sum of % necrosis in Chinese cabbage,"Chinese cabbage; Dose 0.0005, Day 0",C (less than 50% necrosis)
same,Sum of % necrosis in Chinese cabbage,"Chinese cabbage; Dose 0.0005, Day 1",C (less than 50% necrosis)
same,Sum of % necrosis in Chinese cabbage,"Chinese cabbage; Dose 0.0005, Day 3",B (50%-80% necrosis)
same,Sum of % necrosis in Chinese cabbage,"Chinese cabbage; Dose 0.0005, Day 7",A (over 80% necrosis)
same,Sum of % necrosis in Chinese cabbage,"Chinese cabbage; Dose 0.0005, Day 10",A (over 80% necrosis)
same,Sum of % necrosis in Chinese cabbage,"Chinese cabbage; Dose 0.0005, Day 14",A (over 80% necrosis)
same,Sum of % necrosis in Chinese cabbage,"Chinese cabbage; Dose 0.0005, Day 21",A (over 80% necrosis)
same,Sum of % necrosis in Rye grass,"Lolium perenne; Dose 0.000001, Day 0",C (less than 50% necrosis)
same,Sum of % necrosis in Rye grass,"Lolium perenne; Dose 0.000001, Day 1",C (less than 50% necrosis)
same,Sum of % necrosis in Rye grass,"Lolium perenne; Dose 0.000001, Day 3",C (less than 50% necrosis)
same,Sum of % necrosis in Rye grass,"Lolium perenne; Dose 0.000001, Day 7",C (less than 50% necrosis)
same,Sum of % necrosis in Rye grass,"Lolium perenne; Dose 0.000001, Day 10",C (less than 50% necrosis)
same,Sum of % necrosis in Rye grass,"Lolium perenne; Dose 0.000001, Day 14",C (less than 50% necrosis)
same,Sum of % necrosis in Rye grass,"Lolium perenne; Dose 0.000001, Day 21",C (less than 50% necrosis)
same,Sum of % necrosis in Rye grass,"Lolium perenne; Dose 0.000005, Day 0",C (less than 50% necrosis)
same,Sum of % necrosis in Rye grass,"Lolium perenne; Dose 0.000005, Day 1",C (less than 50% necrosis)
same,Sum of % necrosis in Rye grass,"Lolium perenne; Dose 0.000005, Day 3",C (less than 50% necrosis)
same,Sum of % necrosis in Rye grass,"Lolium perenne; Dose 0.000005, Day 7",C (less than 50% necrosis)
same,Sum of % necrosis in Rye grass,"Lolium perenne; Dose 0.000005, Day 10",C (less than 50% necrosis)
same,Sum of % necrosis in Rye grass,"Lolium perenne; Dose 0.000005, Day 14",C (less than 50% necrosis)
same,Sum of % necrosis in Rye grass,"Lolium perenne; Dose 0.000005, Day 21",C (less than 50% necrosis)
same,Sum of % necrosis in Rye grass,"Lolium perenne; Dose 0.00001, Day 0",C (less than 50% necrosis)
same,Sum of % necrosis in Rye grass,"Lolium perenne; Dose 0.00001, Day 1",C (less than 50% necrosis)
same,Sum of % necrosis in Rye grass,"Lolium perenne; Dose 0.00001, Day 3",C (less than 50% necrosis)
same,Sum of % necrosis in Rye grass,"Lolium perenne; Dose 0.00001, Day 7",C (less than 50% necrosis)
same,Sum of % necrosis in Rye grass,"Lolium perenne; Dose 0.00001, Day 10",C (less than 50% necrosis)
same,Sum of % necrosis in Rye grass,"Lolium perenne; Dose 0.00001, Day 14",C (less than 50% necrosis)
same,Sum of % necrosis in Rye grass,"Lolium perenne; Dose 0.00001, Day 21",C (less than 50% necrosis)
same,Sum of % necrosis in Rye grass,"Lolium perenne; Dose 0.00005, Day 0",C (less than 50% necrosis)
same,Sum of % necrosis in Rye grass,"Lolium perenne; Dose 0.00005, Day 1",C (less than 50% necrosis)
same,Sum of % necrosis in Rye grass,"Lolium perenne; Dose 0.00005, Day 3",C (less than 50% necrosis)
same,Sum of % necrosis in Rye grass,"Lolium perenne; Dose 0.00005, Day 7",C (less than 50% necrosis)
same,Sum of % necrosis in Rye grass,"Lolium perenne; Dose 0.00005, Day 10",C (less than 50% necrosis)
same,Sum of % necrosis in Rye grass,"Lolium perenne; Dose 0.00005, Day 14",C (less than 50% necrosis)
same,Sum of % necrosis in Rye grass,"Lolium perenne; Dose 0.00005, Day 21",B (50%-80% necrosis)
same,Sum of % necrosis in Rye grass,"Lolium perenne; Dose 0.0001, Day 0",C (less than 50% necrosis)
same,Sum of % necrosis in Rye grass,"Lolium perenne; Dose 0.0001, Day 1",C (less than 50% necrosis)
same,Sum of % necrosis in Rye grass,"Lolium perenne; Dose 0.0001, Day 3",C (less than 50% necrosis)
same,Sum of % necrosis in Rye grass,"Lolium perenne; Dose 0.0001, Day 7",C (less than 50% necrosis)
same,Sum of % necrosis in Rye grass,"Lolium perenne; Dose 0.0001, Day 10",C (less than 50% necrosis)
same,Sum of % necrosis in Rye grass,"Lolium perenne; Dose 0.0001, Day 14",A (over 80% necrosis)
same,Sum of % necrosis in Rye grass,"Lolium perenne; Dose 0.0001, Day 21",A (over 80% necrosis)
same,Sum of % necrosis in Rye grass,"Lolium perenne; Dose 0.0005, Day 0",C (less than 50% necrosis)
same,Sum of % necrosis in Rye grass,"Lolium perenne; Dose 0.0005, Day 1",C (less than 50% necrosis)
same,Sum of % necrosis in Rye grass,"Lolium perenne; Dose 0.0005, Day 3",C (less than 50% necrosis)
same,Sum of % necrosis in Rye grass,"Lolium perenne; Dose 0.0005, Day 7",C (less than 50% necrosis)
same,Sum of % necrosis in Rye grass,"Lolium perenne; Dose 0.0005, Day 10",C (less than 50% necrosis)
same,Sum of % necrosis in Rye grass,"Lolium perenne; Dose 0.0005, Day 14",C (less than 50% necrosis)
same,Sum of % necrosis in Rye grass,"Lolium perenne; Dose 0.0005, Day 21",C (less than 50% necrosis)
